This assay has as its target T1, hNav1.7 (Homo sapiens, UniProt Q15858).
T1 construct: host or cells: CHO
As to the kind of experiment: Manual patch clamp experiment hNav1.7 (CHO-hNav1.7 stable cell line). The following applies: for inhibitory activity against Nav1.7 (in words): comparison from Table 1; for inhibition at 0.1 µM: read-out: Inhibition of Nav1.7 100 nM(%); for inhibition at 1 µM: read-out: Inhibition of Nav1.7 1000 nM(%). Type of assay: cell-based. An excerpt: Assay 1: Manual Patch Clamp Experiment of Sodium Ion (hNav1.7, hNav1.5 and hNaV1.8) and Calcium Ion (hCav3.2) Channels
hNav1.7, hNav1.5 Manual Patch Clamp Experiment:
Patch voltage clamp electrophysiology allows for the direct measurement and quantification of current block of voltage-gated sodium channels (NaV's), and allows the determination of the time and voltage-dependence of block which has been interpreted as differential binding to the resting, open and inactivated states of the sodium channel to reflect the compound's inhibitory or activating effects (Hille, B., Journal of General Physiology (1977), 69: 497-515).
Representative compounds of the present invention were subject to a manual patch clamp experiment and the purpose of this study was to test the effect of compounds on this ion channel current on a stable cell line transfected with a specific ion channel using a manual patch clamp method. The used stable cell lines CHO-hNav1.7 and HEK-hNav1.5 were from Genionics and WuXi Apptec (Shanghai) respectively.
Manual patch clamp experimental program is as follows:
(1) Preparation of solutions and compounds: The whole cell patch clamp technique was used to record hNav1.7 and hNav1.5 currents. In the experiment, the composition of extracellular fluid (mM): HEPES: 5, NaCl: 40, KCl: CaCl2: 1, MgCl2: 1, CdCl2: 0.1, TEA-Cl: 20. The pH was adjusted to 7.3 with NaOH and the osmotic pressure was adjusted to 310-320 mOsm with sucrose, filtered and stored at 4° C. The composition of the intracellular fluid (mM): HEPES: 10, NaCl: 10, CsOH: 5, CsF: 140, EGTA: 1. The pH was adjusted to 7.3 with CsOH and the osmotic pressure was adjusted to 280-290 mOsm with sucrose, filtered and stored at −20° C.
The positive control and the test compound were firstly dissolved in 100% DMSO (Sigma-Aldrich, D2650), configured as stock solution at a concentration (100 nM, 1000 nM).) The above stock solution was serially diluted with DMSO prior to the experiment, the solution was further diluted with extracellular solution to obtain the test solution of the desired concentration.
(2) Manual Patch Clamp Experiment: The cell suspension was added to a 35 mm petri dish and placed on an inverted microscope stage. The cells were perfused with an extracellular fluid and the flow rate was 1-2 mL/min after cell adherence. The glass microelectrode was prepared in two steps by a microelectrode puller with an inlet water resistance of 2-5 MΩ. A/D-D/A digital-analog conversion was performed by Digidata 1440 (Molecular Devices) and pCLAMP software (version 10.2, Molecular Devices) for stimulation and signal acquisition; the signal was amplified by patch clamp amplifier (Multiclamp 700B, Molecular Devices), and filtering is 4 KHz.
Two different voltage stimulation procedures were used in the hNav1.7 and hNav1.5 manual patch clamp experiments.
One is the inactivation stimulation program, the clamp potential is set at V1/2 of the corresponding channel, i.e., about 50% of the channels are inactivated, then the voltage is applied to −120 mV for 50 ms, then depolarized to −10 mV for 20 ms leading to sodium current, and finally returned to the clamp potential. This stimulation program can also be called channel state-dependent voltage stimulation program.
The other is the non-inactivation stimulation program, the clamp potential is maintained at −120 mV, voltage stimulation is given to −10 mV for 20 ms leading to sodium current, and finally returned to the clamp potential. That is, all channels have not experienced inactivation status, but activate directly from the resting state under the conditions of the stimulation program.
The time intervals of these two voltage stimulation programs were 10 s. The inhibitory effect of the compound was calculated by the change of the current before and after dosing, the IC50 value was fitted by the Hill equation.

Where two headings read alike, the source gives them in different places.

T1 sequence (Q15858 whole entry): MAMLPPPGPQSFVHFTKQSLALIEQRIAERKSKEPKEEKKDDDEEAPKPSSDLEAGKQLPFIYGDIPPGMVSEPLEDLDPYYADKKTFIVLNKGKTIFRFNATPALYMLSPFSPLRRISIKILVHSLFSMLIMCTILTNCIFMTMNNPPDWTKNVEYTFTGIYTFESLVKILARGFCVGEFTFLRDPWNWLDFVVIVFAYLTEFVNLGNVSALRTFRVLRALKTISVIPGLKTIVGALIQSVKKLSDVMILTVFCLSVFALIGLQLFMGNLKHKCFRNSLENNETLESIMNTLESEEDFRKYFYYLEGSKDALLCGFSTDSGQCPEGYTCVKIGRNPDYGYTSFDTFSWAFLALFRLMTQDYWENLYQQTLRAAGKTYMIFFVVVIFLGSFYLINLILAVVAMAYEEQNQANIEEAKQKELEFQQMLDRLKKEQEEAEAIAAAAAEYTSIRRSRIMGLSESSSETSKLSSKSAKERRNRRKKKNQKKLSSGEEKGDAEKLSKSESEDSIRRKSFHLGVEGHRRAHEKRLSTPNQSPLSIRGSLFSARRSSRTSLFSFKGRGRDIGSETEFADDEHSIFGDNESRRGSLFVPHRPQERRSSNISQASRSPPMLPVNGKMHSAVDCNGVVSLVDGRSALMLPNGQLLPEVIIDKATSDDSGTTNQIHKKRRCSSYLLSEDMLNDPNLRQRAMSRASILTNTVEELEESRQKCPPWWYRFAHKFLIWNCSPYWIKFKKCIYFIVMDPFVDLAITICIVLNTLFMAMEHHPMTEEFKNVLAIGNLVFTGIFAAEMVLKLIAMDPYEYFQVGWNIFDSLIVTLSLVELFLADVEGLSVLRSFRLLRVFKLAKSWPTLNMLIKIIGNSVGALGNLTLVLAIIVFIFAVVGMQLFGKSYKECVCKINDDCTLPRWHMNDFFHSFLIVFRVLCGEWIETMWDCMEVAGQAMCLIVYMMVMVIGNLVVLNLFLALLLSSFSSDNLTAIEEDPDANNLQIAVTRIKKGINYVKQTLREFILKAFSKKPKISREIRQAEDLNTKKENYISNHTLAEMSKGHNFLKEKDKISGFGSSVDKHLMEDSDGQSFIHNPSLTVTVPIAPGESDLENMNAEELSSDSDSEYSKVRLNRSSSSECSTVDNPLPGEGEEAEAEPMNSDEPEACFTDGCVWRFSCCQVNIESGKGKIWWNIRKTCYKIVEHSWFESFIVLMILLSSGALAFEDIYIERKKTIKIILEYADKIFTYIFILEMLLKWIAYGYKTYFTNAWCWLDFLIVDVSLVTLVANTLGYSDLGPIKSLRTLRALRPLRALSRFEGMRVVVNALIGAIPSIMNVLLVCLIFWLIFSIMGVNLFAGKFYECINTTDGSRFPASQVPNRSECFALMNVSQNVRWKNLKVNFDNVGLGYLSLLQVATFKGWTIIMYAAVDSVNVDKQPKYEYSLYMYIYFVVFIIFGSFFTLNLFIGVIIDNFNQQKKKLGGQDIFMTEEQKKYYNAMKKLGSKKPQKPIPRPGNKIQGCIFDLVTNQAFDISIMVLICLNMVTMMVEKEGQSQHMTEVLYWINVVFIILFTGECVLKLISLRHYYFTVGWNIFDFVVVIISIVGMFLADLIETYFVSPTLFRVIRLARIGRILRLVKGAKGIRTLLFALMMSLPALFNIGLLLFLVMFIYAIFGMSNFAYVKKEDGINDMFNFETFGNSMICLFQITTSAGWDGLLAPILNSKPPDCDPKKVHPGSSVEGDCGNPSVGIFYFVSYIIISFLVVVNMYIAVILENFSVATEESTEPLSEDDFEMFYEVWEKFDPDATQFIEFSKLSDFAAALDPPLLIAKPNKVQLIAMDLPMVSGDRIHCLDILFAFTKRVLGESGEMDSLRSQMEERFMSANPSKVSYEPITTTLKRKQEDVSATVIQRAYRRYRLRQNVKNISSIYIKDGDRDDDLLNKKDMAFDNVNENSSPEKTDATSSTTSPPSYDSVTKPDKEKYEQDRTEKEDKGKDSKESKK

Take `CS(=O)(=O)NC(=O)c1cc(C2CC2)c(CN2CCN(Cc3cc(Cl)cc(Cl)c3)CC2)cc1F` [Compound C11, reference compound]: the “inhibitory activity against Nav1.7 (in words)” value (shortened to “inhibitory activity”) was “significantly reduced”. The inhibition at 0.1 µM (compound at 100 nM) worked out at 23.1%. Besides, under “compound at 1000 nM”, the inhibition at 1 µM came out at 51.9%.
Taken in the same sequence, the figures for `Cc1cc(CN2CCN(Cc3cc(F)c(C(=O)NS(=O)(=O)C4CC4)cc3Cl)CC2)ccc1Cl` [Compound C4, 5-chloro-4-((4-(4-chloro-3-methylbenzyl)piperazin-1-yl)methyl)-N-(cyclopropylsulfonyl)-2-fluorobenzamide, reference compound] were “significantly reduced”, 18.6% and 58.9%.
Turning to `O=C(NS(=O)(=O)C1CC1)c1cc(C2CC2)c(CN2CCN(c3cc(Cl)cc(Cl)c3)CC2)cc1F` [Compound Z-197], the inhibition at 0.1 µM is 83.6% and the inhibition at 1 µM is 100%.
For the molecule `CCc1cc(C(=O)NS(=O)(=O)C2CC2)c(F)cc1CN1CCN(c2ccc(Cl)c(F)c2)CC1` [Compound Z-193], the inhibition at 0.1 µM (compound at 100 nM) was found to be 72.6%. Also, for the setting “compound at 1000 nM”, the inhibition at 1 µM amounted to 95.7%.
In the same order, the values of `CCc1cc(C(=O)NS(=O)(=O)C2CC2)c(F)cc1CN1CCN(c2cc(Cl)cc(Cl)c2)CC1` [Compound Z-192] are 77.7% and 98.4%.
In the same order, the values of `O=C(NS(=O)(=O)C1CC1)c1cc(C2CC2)c(OC[C@H]2CCCN2c2ccc(C(F)(F)F)cn2)cc1F` [Compound Z-142, (R)-5-cyclopropyl-N-(cyclopropylsulfonyl)-2-fluoro-4-((1-(5-(trifluoromethyl)pyridin-2-yl)pyrrolidin-2-yl)methoxy)benzamide] are 92.2% and 97.8%.
In the same order, the values of `CCc1cc(C(=O)NS(=O)(=O)C2CC2)c(F)cc1CN1CCN(c2ccc(Cl)c(Cl)c2)CC1` [Compound Z-191] are 73.3% and 95%.
For `Cc1cc(N2CCN(Cc3cc(F)c(C(=O)NS(=O)(=O)C4CC4)cc3Cl)CC2)cc(C)c1F` [Compound Z-180], the inhibition at 0.1 µM (compound at 100 nM) worked out at 70.4%. Further, the inhibition at 1 µM (compound at 1000 nM) is 97.8%.
On to `O=C(NS(=O)(=O)C1CC1)c1cc(C2CC2)c(CN2CCN(Cc3cc(Cl)cc(Cl)c3)CC2)cc1F` [Compound C1, reference compound], for which the “inhibitory activity” value is “significantly reduced”, the inhibition at 0.1 µM was determined as 52% and the inhibition at 1 µM is 64%.
With `O=C(NS(=O)(=O)C1CC1)c1cc(Cl)c(CN2CCN(C(=O)c3ccc(Cl)cc3)CC2)cc1F` [Compound C5, reference compound], the inhibition at 0.1 µM (compound at 100 nM) came out at 17.2%. Moreover, the inhibition at 1 µM (compound at 1000 nM) came to 36.8%.
In the same order, the values of `O=C(NS(=O)(=O)C1CC1)c1cc(Cl)c(CN2CCN(c3ccc(C(F)(F)F)cc3)CC2)cc1F` [Compound Z-174] are 78% and 95.1%.
In the same order, the values of `Cc1cc(C(=O)N2CCN(Cc3cc(F)c(C(=O)NS(=O)(=O)C4CC4)cc3Cl)CC2)ccc1Cl` [Compound C3, reference compound] are 17.6% and 52.3%.
As to “(cyclopropylsulfonyl)-4-((4-(3,4-dichlorophenyl) piperazin-1-yl)methyl)-2-fluorobenzamide [Compound Z-196]”, the “Inhibition of Nav1.7 100 nM(%)” value (compound at 100 nM) is given as 85.03%. Moreover, the “Inhibition of Nav1.7 1000 nM(%)” value (compound at 1000 nM) was determined as 93.02%.
Consider `O=C(NS(=O)(=O)C1CC1)c1cc(Cl)c(OC[C@H]2CCCN2Cc2ccc(C(F)(F)F)cc2)cc1F` [Compound C8, (R)-5-chloro-N-(cyclopropylsulfonyl)-2-fluoro-4-((1-(4-(trifluoromethyl)benzyl)pyrrolidin-2-yl)methoxy), reference compound], for which the inhibition at 0.1 µM (compound at 100 nM) stood at 47%. Further, under “compound at 1000 nM”, the inhibition at 1 µM turned out to be 66.8%.
In the case of `O=C(NS(=O)(=O)C1CC1)c1cc(Cl)c(OC[C@H]2CCCN2Cc2ccc(Cl)cc2)cc1F` [Compound C7, (R)-5-chloro-4-((1-(4-chlorobenzyl)pyrrolidin-2-yl)methoxy)-N-(cyclopropylsulfonyl), reference compound], the inhibition at 0.1 µM stood at 31.1% and the inhibition at 1 µM amounted to 67.5%.
Consider `Cc1cc(N2CCN(Cc3cc(F)c(C(=O)NS(=O)(=O)C4CC4)cc3Cl)CC2)cc(C)c1Cl` [Compound Z-185], for which the inhibition at 0.1 µM (compound at 100 nM) worked out at 85.3%. The inhibition at 1 µM (compound at 1000 nM) is 94.9%.
On to `CS(=O)(=O)NC(=O)c1cc(C2CC2)c(CN2CCN(Cc3ccc(Cl)c(Cl)c3)CC2)cc1F` [Compound C2, reference compound], for which the “inhibitory activity” value was “significantly reduced”. The inhibition at 0.1 µM (compound at 100 nM) was determined as 49.2%. The inhibition at 1 µM (compound at 1000 nM) came to 64.8%.
Turning to `O=C(NS(=O)(=O)C1CC1)c1cc(Cl)c(OC[C@H]2CCCN2c2ccc(C(F)(F)F)cn2)cc1F` [Compound Z-150, (R)-5-chloro-N-(cyclopropylsulfonyl)-2-fluoro-4-((1-(5-(trifluoromethyl)pyridin-2-yl)pyrrolidin-2-yl)methoxy)benzamide], where the note is “compound at 100 nM”, the inhibition at 0.1 µM came out at 93.3%. Further, for the setting “compound at 1000 nM”, the inhibition at 1 µM was found to be 96.7%.
In the case of `Cc1c(F)ccc(N2CCN(Cc3cc(F)c(C(=O)NS(=O)(=O)C4CC4)cc3Cl)CC2)c1Cl` [Compound Z-184], under “compound at 100 nM”, the inhibition at 0.1 µM is 70.3%. The inhibition at 1 µM (compound at 1000 nM) is 98.5%.
Taken in the same sequence, the figures for `O=C(NS(=O)(=O)C1CC1)c1cc(Cl)c(OC[C@H]2CCCN2C(=O)c2ccc(Cl)cc2)cc1F` [Compound C9, (R)-5-chloro-4-((1-(4-chlorobenzoyl)pyrrolidin-2-yl)methoxy)-N-(cyclopropylsulfonyl), reference compound] were 5.49% and 29.1%.
Taken in the same sequence, the figures for `Cc1c(F)c(F)cc(N2CCN(Cc3cc(F)c(C(=O)NS(=O)(=O)C4CC4)cc3Cl)CC2)c1F` [Compound Z-182] were 77.2% and 97.6%.
Taken in the same sequence, the figures for `Cc1c(Cl)ccc(N2CCN(Cc3cc(F)c(C(=O)NS(=O)(=O)C4CC4)cc3Cl)CC2)c1F` [Compound Z-188] were 81.8% and 98.1%.
Turning to `O=C(NS(=O)(=O)C1CC1)c1cc(Cl)c(OC[C@H]2CCCN2C(=O)c2ccc(C(F)(F)F)cc2)cc1F` [Compound C10, (R)-5-chloro-N-(cyclopropylsulfonyl)-2-fluoro-4-((1-(4-(trifluoromethyl)benzoyl)pyrrolidin-2-yl)methoxy), reference compound], for the setting “compound at 100 nM”, the inhibition at 0.1 µM was found to be 7.83%. Moreover, the inhibition at 1 µM (compound at 1000 nM) is 24.7%.
Taken in the same sequence, the figures for `O=C(NS(=O)(=O)C1CC1)c1cc(Cl)c(CN2CCN(Cc3ccc(Cl)cc3)CC2)cc1F` [Compound C6, reference compound] were 11.2% and 57.2%.

For the origin of these results see US10815197B2, “N-sulfonyl benzamides as voltage-gated sodium channel inhibitors” (SHANGHAI HAIYAN PHARMACEUTICAL TECHNOLOGY CO., LTD., priority 2016, dated 2020).
